# Patent US9708314B2, “Heterocyclic amide compound” (NISSAN CHEMICAL INDUSTRIES, LTD., priority 2013, dated 2017)
# Columns and labels:
# Assay type in all cases: in vivo
# [1] = tested on: Echinochloa oryzacola Vasing.; test: Test Example 2: herbicidal activity, application during weed generation in submerged conditions; settings: Eighteenth Table; application herbicide amount 320 g/ha
# In short: (§1)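 Mixed sowings in flooded alluvial soil (4 cm water), greenhouse 25-30 °C; emulsifiable concentrate diluted in water applied to the water surface at the 1-2 leaf stage, rate in g/ha. Effect scored three weeks later on a 0-5 scale (5 = ≥90% herbicidal ratio, 0 = ≤5%).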
# Monochoria vaginalis = test: as above; settings: Eighteenth Table; application herbicide amount 320 g/ha
# In short: as §1
# Scirpus juncoides = test: as above; settings: Eighteenth Table; application herbicide amount 320 g/ha
# In short: as §1
# Abutilon theophrasti = test: Test Example 4: herbicidal effect by application to foliage (diluvial soil, plastic box); settings: application to foliage, application herbicide amount 320 g/ha
# In short: (§2)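 Plants were grown in sterilized diluvial soil in a greenhouse at 25-30° C for 14 days, then sprayed on stems and leaves with water-diluted emulsion formulation at set rates in g/ha. Weed control and crop injury were scored 3 weeks after treatment on a 0-5 herbicidal-ratio scale, from 0 (≤5%) to 5 (≥90%).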
# Alopecurus myosuroides = test: as above; settings: application to foliage, application herbicide amount 320 g/ha
# In short: as §2
# Apera spica-venti. = test: as above; settings: application to foliage, application herbicide amount 320 g/ha
# In short: as §2
# Avena fatua = test: as above; settings: application to foliage, application herbicide amount 320 g/ha
# In short: as §2
# Chenopodium album = test: as above; settings: application to foliage, application herbicide amount 320 g/ha
# In short: as §2
# Digitaria ciliaris = test: as above; settings: application to foliage, application herbicide amount 320 g/ha
# In short: as §2
# [2] = tested on: Echinochloa crus-galli var. crus-galli; test: as above; settings: application to foliage, application herbicide amount 320 g/ha
# In short: as §2
# Galium spurium = test: as above; settings: application to foliage, application herbicide amount 320 g/ha
# In short: as §2
# Lolium multiflorum Lam. = test: as above; settings: application to foliage, application herbicide amount 320 g/ha
# In short: as §2
# Setaria viridis = test: as above; settings: application to foliage, application herbicide amount 320 g/ha
# In short: as §2
# Veronica persica = test: as above; settings: application to foliage, application herbicide amount 320 g/ha
# In short: as §2
# [3] = tested on: Beta vulgaris ssp. vulgaris; test: Test Example 4: effect on crop by application to foliage (diluvial soil, plastic box); settings: application to foliage, application herbicide amount 320 g/ha
# In short: as §2
# Brassica campestris L. = test: as above; settings: application to foliage, application herbicide amount 320 g/ha
# In short: as §2
# Glycine max = test: as above; settings: application to foliage, application herbicide amount 320 g/ha
# In short: as §2
# Triticum aestivum = test: as above; settings: application to foliage, application herbicide amount 320 g/ha
# In short: as §2
# Zea mays = test: as above; settings: application to foliage, application herbicide amount 320 g/ha
# In short: as §2
# [4] = tested on: directly sowed Oryza sativa; test: as above; settings: application to foliage, application herbicide amount 320 g/ha
# In short: as §2
Compound,A (Echinochloa oryzicola Vasing.) herbicidal ratio grade [1],C (Monochoria vaginalis) herbicidal ratio grade (Monochoria vaginalis),B (Scirpus juncoides) herbicidal ratio grade (Scirpus juncoides),M (Abutilon theophrasti) herbicidal effect (Abutilon theophrasti),J (Alopecurus myosuroides) herbicidal effect (Alopecurus myosuroides),L (Apera spica-venti.) herbicidal effect (Apera spica-venti.),I (Avena fatua) herbicidal effect (Avena fatua),O (Chenopodium album) herbicidal effect (Chenopodium album),F (Digitaria ciliaris) herbicidal effect (Digitaria ciliaris),H (Echinochloa crus-galli var. crus-galli) herbicidal effect [2],Q (Galium spurium) herbicidal effect (Galium spurium),K (Lolium multiflorum Lam.) herbicidal effect (Lolium multiflorum Lam.),G (Setaria viridis) herbicidal effect (Setaria viridis),R (Veronica persica) herbicidal effect (Veronica persica),f (Beta vulgaris ssp. vulgaris) effect on crop [3],g (Brassica campestris L.) effect on crop (Brassica campestris L.),c (Glycine max) effect on crop (Glycine max),e (Triticum aestivum) effect on crop (Triticum aestivum),b (Zea mays) effect on crop (Zea mays),d (directly sowed Oryza sativa) effect on crop [4]
COc1ccccc1-c1nnc2c(C(=O)Nc3nnc(C)o3)ccc(C(F)(F)F)n12 [1-047],3 (Herbicidal ratio of 40% or more and less than 70%),3 (Herbicidal ratio of 40% or more and less than 70%),2 (Herbicidal ratio of 20% or more and less than 40%),5 (Herbicidal ratio of 90% or more (almost completely withered)),0 (Herbicidal ratio of 5% or less (almost no effect)),1 (Herbicidal ratio of 5% or more and less than 20%),1 (Herbicidal ratio of 5% or more and less than 20%),5 (Herbicidal ratio of 90% or more (almost completely withered)),4 (Herbicidal ratio of 70% or more and less than 90%),5 (Herbicidal ratio of 90% or more (almost completely withered)),2 (Herbicidal ratio of 20% or more and less than 40%),0 (Herbicidal ratio of 5% or less (almost no effect)),4 (Herbicidal ratio of 70% or more and less than 90%),4 (Herbicidal ratio of 70% or more and less than 90%),5 (Herbicidal ratio of 90% or more (almost completely withered)),4 (Herbicidal ratio of 70% or more and less than 90%),1 (Herbicidal ratio of 5% or more and less than 20%),0 (Herbicidal ratio of 5% or less (almost no effect)),0 (Herbicidal ratio of 5% or less (almost no effect)),3 (Herbicidal ratio of 40% or more and less than 70%)
COc1ccc(-c2nnc3c(C(=O)Nc4nnc(C)o4)ccc(C(F)(F)F)n23)cc1 [1-016],3 (Herbicidal ratio of 40% or more and less than 70%),0 (Herbicidal ratio of 5% or less (almost no effect)),0 (Herbicidal ratio of 5% or less (almost no effect)),5 (Herbicidal ratio of 90% or more (almost completely withered)),1 (Herbicidal ratio of 5% or more and less than 20%),0 (Herbicidal ratio of 5% or less (almost no effect)),1 (Herbicidal ratio of 5% or more and less than 20%),5 (Herbicidal ratio of 90% or more (almost completely withered)),4 (Herbicidal ratio of 70% or more and less than 90%),5 (Herbicidal ratio of 90% or more (almost completely withered)),2 (Herbicidal ratio of 20% or more and less than 40%),1 (Herbicidal ratio of 5% or more and less than 20%),2 (Herbicidal ratio of 20% or more and less than 40%),4 (Herbicidal ratio of 70% or more and less than 90%),5 (Herbicidal ratio of 90% or more (almost completely withered)),3 (Herbicidal ratio of 40% or more and less than 70%),0 (Herbicidal ratio of 5% or less (almost no effect)),0 (Herbicidal ratio of 5% or less (almost no effect)),0 (Herbicidal ratio of 5% or less (almost no effect)),0 (Herbicidal ratio of 5% or less (almost no effect))
Cc1nnc(NC(=O)c2ccc(C(F)(F)F)n3c(C[S+]([O-])CC(F)(F)F)nnc23)o1 (centres unmarked) [1-038],1 (Herbicidal ratio of 5% or more and less than 20%),0 (Herbicidal ratio of 5% or less (almost no effect)),1 (Herbicidal ratio of 5% or more and less than 20%),5 (Herbicidal ratio of 90% or more (almost completely withered)),1 (Herbicidal ratio of 5% or more and less than 20%),2 (Herbicidal ratio of 20% or more and less than 40%),3 (Herbicidal ratio of 40% or more and less than 70%),5 (Herbicidal ratio of 90% or more (almost completely withered)),5 (Herbicidal ratio of 90% or more (almost completely withered)),5 (Herbicidal ratio of 90% or more (almost completely withered)),3 (Herbicidal ratio of 40% or more and less than 70%),1 (Herbicidal ratio of 5% or more and less than 20%),5 (Herbicidal ratio of 90% or more (almost completely withered)),5 (Herbicidal ratio of 90% or more (almost completely withered)),5 (Herbicidal ratio of 90% or more (almost completely withered)),4 (Herbicidal ratio of 70% or more and less than 90%),0 (Herbicidal ratio of 5% or less (almost no effect)),1 (Herbicidal ratio of 5% or more and less than 20%),0 (Herbicidal ratio of 5% or less (almost no effect)),4 (Herbicidal ratio of 70% or more and less than 90%)
Cc1cc(-c2nnc3c(C(=O)Nc4nnc(C)o4)ccc(C(F)(F)F)n23)no1 [1-022],2 (Herbicidal ratio of 20% or more and less than 40%),0 (Herbicidal ratio of 5% or less (almost no effect)),2 (Herbicidal ratio of 20% or more and less than 40%),5 (Herbicidal ratio of 90% or more (almost completely withered)),1 (Herbicidal ratio of 5% or more and less than 20%),1 (Herbicidal ratio of 5% or more and less than 20%),1 (Herbicidal ratio of 5% or more and less than 20%),5 (Herbicidal ratio of 90% or more (almost completely withered)),4 (Herbicidal ratio of 70% or more and less than 90%),5 (Herbicidal ratio of 90% or more (almost completely withered)),2 (Herbicidal ratio of 20% or more and less than 40%),1 (Herbicidal ratio of 5% or more and less than 20%),3 (Herbicidal ratio of 40% or more and less than 70%),4 (Herbicidal ratio of 70% or more and less than 90%),4 (Herbicidal ratio of 70% or more and less than 90%),2 (Herbicidal ratio of 20% or more and less than 40%),2 (Herbicidal ratio of 20% or more and less than 40%),1 (Herbicidal ratio of 5% or more and less than 20%),0 (Herbicidal ratio of 5% or less (almost no effect)),3 (Herbicidal ratio of 40% or more and less than 70%)
